Laboratory results: publication PMC4676410 (Journal of medicinal chemistry, 2015)
Like-named read-outs stand apart in the source and are kept apart here.

Key:
A-MLV = experiment: microbe, parasite or virus in culture; format: cell-based; conditions: Murine leukemia virus
VSV-G = experiment: microbe, parasite or virus in culture; format: cell-based; conditions: Human immunodeficiency virus 1
YU2 core gp120 [1] = experiment: Competitive SPR: sCD4 binding to immobilized YU2 core gp120; parameters: species or system HIV-1; conditions: NBD-11021 12.5-200 μM
HIV-1ADA = experiment: CD4-dependent CCR5-tropic HIV-1 cell-cell transmission assay; format: cell-based; conditions: Ghost X4/R5 and MOLT-4/HIV-1ADA
[2] = system: fusion between MAGI-CCR5 and HL 2/3 cells; experiment: HIV-1 cell-cell fusion assay; format: cell-based; conditions: read-out: IC50, cell-cell fusion assay
[3] = system: HIV-1ADA (CCR5-tropic) pseudovirus; experiment: Single-cycle infection assay in U87-CD4-CCR5 cells
SIVmac186 = experiment: Antiviral activity against SIV; format: cell-based; conditions: Table S2
[4] = system: HIV-1HXB2 (CXCR4-tropic) pseudovirus; experiment: Single-cycle infection assay in U87-CD4-CXCR4 cells; conditions: U87-CD4-CXCR4, HIV-1HXB2
YU2 core gp120 [5] = experiment: SPR: binding of YU2 core gp120 to captured mAb 17b in presence of compounds; parameters: species or system HIV-1; conditions: sCD4 15-fold excess, compounds 50-fold excess
[6] = system: lab-adapted and primary HIV-1 isolates; experiment: microbe, parasite or virus in culture; format: cell-based; conditions: Human immunodeficiency virus 1, PBMC, laboratory strain BaL, subtype B, R5
YU2 core gp120 [7] = experiment: Competitive SPR: VRC-PG04 binding to immobilized YU2 core gp120; parameters: species or system HIV-1; conditions: at higher ratios of NBD-11021 versus VRC-PG04
SHIVSF162P3 = experiment: Antiviral activity against SHIV; format: cell-based; conditions: Table S2
HIV-2 isolates = experiment: Antiviral activity against HIV-2; format: cell-based; conditions: Table S2
HIV-1IIIB = experiment: CD4-dependent CXCR4-tropic HIV-1 cell-cell transmission assay; format: cell-based; conditions: Ghost X4/R5 and H9/HIV-1IIIB
[8] = system: laboratory-adapted HIV-1 strains; experiment: microbe, parasite or virus in culture; format: cell-based
[9] = molecular target: HIV-1 reverse transcriptase (RT) (Human immunodeficiency virus type 1 group M subtype B, UniProt P12497); experiment: HIV-1 reverse transcriptase

Cc1nc(C(NC(=O)c2ccc(-c3ccc(Cl)cc3)[nH]2)C2CCCCN2)sc1CO (mixture of isomers) [NBD-11021, 5-(4-Chlorophenyl)-N-((5-(hydroxymethyl)-4-methylthiazol-2-yl)-(piperidin-2-yl)methyl)-1H-pyrrole-2-carboxamide]
IC50 (A-MLV): 7500 ± 200 nM
IC50 (VSV-G): 10000 ± 500 nM
competition with sCD4 for binding to gp120 (in words) (YU2 core gp120 [1]): competes with CD4 to bind to gp120 in a dose-dependent manner
inhibition of CCR5-tropic cell-cell transmission (in words) (HIV-1ADA): showed inhibition
IC50 [2]: 9800 nM
IC50 ([3]; Pseudovirus, U87/CD4/CCR5, U87-CD4-CCR5, HIV-1ADA): 1700 ± 200 nM
IC50 ([3]; U87/CD4/CCR5, read-out: IC50 against CCR5- and CXCR4-tropic HIV-1): 1700 to 2400 nM
activity against SIVmac186 (in words) (SIVmac186): poor activity
IC50 [4]: 2400 ± 100 nM
enhancement of mAb 17b binding to YU2 core gp120 (in words) (YU2 core gp120 [5]): no enhancement
IC50 [6]: 3700 ± 400 nM
competition with VRC-PG04 for binding to gp120 (in words) (YU2 core gp120 [7]): effectively competed with VRC-PG04
activity against SHIVSF162P3 (in words) (SHIVSF162P3): poor activity
activity against HIV-2 isolates (in words) (HIV-2 isolates): poor activity
inhibition of CXCR4-tropic cell-cell transmission (in words) (HIV-1IIIB): inhibited cell–cell transmission effectively
IC50 ([8]; Human immunodeficiency virus 1, MT2, MT-2, HIV-1IIIB): 1500 ± 60 nM
IC50 ([8]; Human immunodeficiency virus 1, MT2, laboratory strain RF, subtype B, MT-2, R5X4): 7300 ± 600 nM

Cc1cn([C@H]2C[C@H](N=[N+]=[N-])[C@@H](CO[P@](=O)(O)O[P@](=O)(O)OP(=O)(O)O)O2)c(=O)[nH]c1=O [AZT-TP]
IC50 [9]: 8 nM

COc1ccnc2[nH]cc(C(=O)C(=O)N3CCN(C(=O)c4ccccc4)C[C@H]3C)c12 [BMS-378806]
IC50 ([2]; MAGI-CCR5 and HL 2/3 cells): 14 nM
